In the supplement of paper PMC8612539:
≈ marks a conversion by molar mass, not a printed value.

System: Escherichia coli
Assay: minimum inhibitory concentration (MIC)
Procedure: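 Broth microdilution MIC (Sensititre BOPO7F bovine plate, CLSI methods) of 19 antimicrobials against field isolates of P. multocida, M. haemolytica, H. somni (deep nasopharyngeal swabs) and E. coli, Enterococcus spp. (rectal swabs) from weaned dairy heifers. Incubation 16-24 h at 35 C. MIC is the lowest concentration preventing visible growth. Values with <= or > lie at the tested range limits. Trimethoprim-sulfamethoxazole is given as the trimethoprim component of a 1:19 mixture.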

COc1cc(NS(=O)(=O)c2ccc(N)cc2)nc(OC)n1 [sulfadimethoxine]
Conditions	minimum inhibitory concentration [µg/mL]
isolate (source animal id): 8	> 256
isolate (source animal id): 9	> 256
isolate (source animal id): 10	> 256
isolate (source animal id): 11	≤ 256
isolate (source animal id): 12	> 256
isolate (source animal id): 13	≤ 256
isolate (source animal id): 14	> 256
isolate (source animal id): 15	≤ 256
isolate (source animal id): 16	> 256
isolate (source animal id): 98	≤ 256
isolate (source animal id): 99	≤ 256
isolate (source animal id): 100	> 256
isolate (source animal id): 101	> 256
isolate (source animal id): 102	> 256
isolate (source animal id): 103	> 256
isolate (source animal id): 104	> 256
isolate (source animal id): 105	> 256
isolate (source animal id): 106	> 256
isolate (source animal id): 107	> 256
isolate (source animal id): 108	> 256
isolate (source animal id): 109	≤ 256
isolate (source animal id): 110	> 256
isolate (source animal id): 111	> 256
isolate (source animal id): 112	> 256
isolate (source animal id): 113	> 256
isolate (source animal id): 114	≤ 256
isolate (source animal id): 115	> 256
isolate (source animal id): 116	> 256
isolate (source animal id): 117	> 256
isolate (source animal id): 118	≤ 256
isolate (source animal id): 119	> 256
isolate (source animal id): 120	> 256
isolate (source animal id): 121	> 256
isolate (source animal id): 122	> 256
isolate (source animal id): 123	> 256
isolate (source animal id): 124	> 256
isolate (source animal id): 125	> 256
isolate (source animal id): 126	> 256
isolate (source animal id): 127	> 256
isolate (source animal id): 128	> 256
isolate (source animal id): 129	> 256
isolate (source animal id): 130	> 256
isolate (source animal id): 131	> 256
isolate (source animal id): 132	> 256
isolate (source animal id): 133	> 256
isolate (source animal id): 134	> 256
isolate (source animal id): 135	≤ 256
isolate (source animal id): 136	> 256
isolate (source animal id): 137	≤ 256
isolate (source animal id): 138	> 256
isolate (source animal id): 139	> 256
isolate (source animal id): 140	≤ 256
isolate (source animal id): 141	> 256
isolate (source animal id): 142	> 256
isolate (source animal id): 143	> 256
isolate (source animal id): 144	> 256
isolate (source animal id): 145	> 256
isolate (source animal id): 146	> 256
isolate (source animal id): 147	> 256
isolate (source animal id): 148	> 256
isolate (source animal id): 149	> 256
isolate (source animal id): 150	> 256
isolate (source animal id): 151	> 256
isolate (source animal id): 152	> 256
isolate (source animal id): 153	> 256
isolate (source animal id): 154	> 256
isolate (source animal id): 155	> 256
isolate (source animal id): 156	> 256
isolate (source animal id): 157	> 256
isolate (source animal id): 158	> 256
isolate (source animal id): 159	> 256
isolate (source animal id): 160	> 256
isolate (source animal id): 161	> 256
isolate (source animal id): 162	> 256
isolate (source animal id): 163	> 256
isolate (source animal id): 164	> 256
isolate (source animal id): 165	> 256
isolate (source animal id): 166	> 256
isolate (source animal id): 167	> 256
isolate (source animal id): 168	≤ 256
isolate (source animal id): 169	≤ 256
isolate (source animal id): 170	> 256
isolate (source animal id): 171	≤ 256
isolate (source animal id): 172	≤ 256
isolate (source animal id): 173	> 256
isolate (source animal id): 174	≤ 256
isolate (source animal id): 175	> 256
isolate (source animal id): 176	> 256
isolate (source animal id): 177	> 256
isolate (source animal id): 178	> 256
isolate (source animal id): 179	≤ 256
isolate (source animal id): 180	> 256
isolate (source animal id): 181	> 256
isolate (source animal id): 182	> 256
isolate (source animal id): 183	> 256
isolate (source animal id): 184	> 256
isolate (source animal id): 185	> 256
isolate (source animal id): 186	≤ 256
isolate (source animal id): 187	> 256
isolate (source animal id): 188	> 256

CN[C@@H]1[C@H](O)[C@H](NC)[C@H]2O[C@@]3(O)C(=O)C[C@@H](C)O[C@H]3O[C@@H]2[C@H]1O [Spectinomycin]
Conditions	minimum inhibitory concentration [µg/mL]
isolate (source animal id): 8	16 (≈ 48.1 µM)
isolate (source animal id): 9	> 64
isolate (source animal id): 10	64 (≈ 193 µM)
isolate (source animal id): 11	16 (≈ 48.1 µM)
isolate (source animal id): 12	32 (≈ 96.3 µM)
isolate (source animal id): 13	16 (≈ 48.1 µM)
isolate (source animal id): 14	> 64
isolate (source animal id): 15	16 (≈ 48.1 µM)
isolate (source animal id): 16	16 (≈ 48.1 µM)
isolate (source animal id): 98	16 (≈ 48.1 µM)
isolate (source animal id): 99	16 (≈ 48.1 µM)
isolate (source animal id): 100	≤ 8
isolate (source animal id): 101	> 64
isolate (source animal id): 102	16 (≈ 48.1 µM)
isolate (source animal id): 103	> 64
isolate (source animal id): 104	16 (≈ 48.1 µM)
isolate (source animal id): 105	16 (≈ 48.1 µM)
isolate (source animal id): 106	32 (≈ 96.3 µM)
isolate (source animal id): 107	16 (≈ 48.1 µM)
isolate (source animal id): 108	16 (≈ 48.1 µM)
isolate (source animal id): 109	16 (≈ 48.1 µM)
isolate (source animal id): 110	≤ 8
isolate (source animal id): 111	16 (≈ 48.1 µM)
isolate (source animal id): 112	16 (≈ 48.1 µM)
isolate (source animal id): 113	16 (≈ 48.1 µM)
isolate (source animal id): 114	16 (≈ 48.1 µM)
isolate (source animal id): 115	> 64
isolate (source animal id): 116	16 (≈ 48.1 µM)
isolate (source animal id): 117	> 64
isolate (source animal id): 118	16 (≈ 48.1 µM)
isolate (source animal id): 119	> 64
isolate (source animal id): 120	> 64
isolate (source animal id): 121	> 64
isolate (source animal id): 122	> 64
isolate (source animal id): 123	16 (≈ 48.1 µM)
isolate (source animal id): 124	> 64
isolate (source animal id): 125	> 64
isolate (source animal id): 126	> 64
isolate (source animal id): 127	> 64
isolate (source animal id): 128	> 64
isolate (source animal id): 129	16 (≈ 48.1 µM)
isolate (source animal id): 130	> 64
isolate (source animal id): 131	16 (≈ 48.1 µM)
isolate (source animal id): 132	16 (≈ 48.1 µM)
isolate (source animal id): 133	> 64
isolate (source animal id): 134	16 (≈ 48.1 µM)
isolate (source animal id): 135	16 (≈ 48.1 µM)
isolate (source animal id): 136	16 (≈ 48.1 µM)
isolate (source animal id): 137	16 (≈ 48.1 µM)
isolate (source animal id): 138	> 64
isolate (source animal id): 139	> 64
isolate (source animal id): 140	16 (≈ 48.1 µM)
isolate (source animal id): 141	> 64
isolate (source animal id): 142	16 (≈ 48.1 µM)
isolate (source animal id): 143	> 64
isolate (source animal id): 144	16 (≈ 48.1 µM)
isolate (source animal id): 145	> 64
isolate (source animal id): 146	16 (≈ 48.1 µM)
isolate (source animal id): 147	> 64
isolate (source animal id): 148	16 (≈ 48.1 µM)
isolate (source animal id): 149	16 (≈ 48.1 µM)
isolate (source animal id): 150	> 64
isolate (source animal id): 151	16 (≈ 48.1 µM)
isolate (source animal id): 152	16 (≈ 48.1 µM)
isolate (source animal id): 153	16 (≈ 48.1 µM)
isolate (source animal id): 154	16 (≈ 48.1 µM)
isolate (source animal id): 155	> 64
isolate (source animal id): 156	> 64
isolate (source animal id): 157	> 64
isolate (source animal id): 158	16 (≈ 48.1 µM)
isolate (source animal id): 159	≤ 8
isolate (source animal id): 160	> 64
isolate (source animal id): 161	> 64
isolate (source animal id): 162	16 (≈ 48.1 µM)
isolate (source animal id): 163	16 (≈ 48.1 µM)
isolate (source animal id): 164	16 (≈ 48.1 µM)
isolate (source animal id): 165	> 64
isolate (source animal id): 166	≤ 8
isolate (source animal id): 167	16 (≈ 48.1 µM)
isolate (source animal id): 168	16 (≈ 48.1 µM)
isolate (source animal id): 169	16 (≈ 48.1 µM)
isolate (source animal id): 170	16 (≈ 48.1 µM)
isolate (source animal id): 171	16 (≈ 48.1 µM)
isolate (source animal id): 172	16 (≈ 48.1 µM)
isolate (source animal id): 173	16 (≈ 48.1 µM)
isolate (source animal id): 174	16 (≈ 48.1 µM)
isolate (source animal id): 175	16 (≈ 48.1 µM)
isolate (source animal id): 176	16 (≈ 48.1 µM)
isolate (source animal id): 177	32 (≈ 96.3 µM)
isolate (source animal id): 178	16 (≈ 48.1 µM)
isolate (source animal id): 179	16 (≈ 48.1 µM)
isolate (source animal id): 180	16 (≈ 48.1 µM)
isolate (source animal id): 181	> 64
isolate (source animal id): 182	16 (≈ 48.1 µM)
isolate (source animal id): 183	16 (≈ 48.1 µM)
isolate (source animal id): 184	16 (≈ 48.1 µM)
isolate (source animal id): 185	16 (≈ 48.1 µM)
isolate (source animal id): 186	16 (≈ 48.1 µM)
isolate (source animal id): 187	32 (≈ 96.3 µM)
isolate (source animal id): 188	32 (≈ 96.3 µM)
